Measurements taken from patent US12540131B2 (Merck Sharp & Dohme LLC, priority 2019, dated 2026).

Target: GST tagged truncated human mutant G2019S LRRK2 (Homo sapiens (Human), UniProt Q5S007, G2019S)
Experiment: LRRK2 Km ATP LanthaScreen Assay
Type: biochemical
Details: G2019S LRRK2, 134 μM ATP (Km ATP), mean values; for IC50: read-out: LRRK2 pIC50 (converted)
Outline: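 Enzyme (GST-tagged, truncated) was preincubated with compound for 15 min at RT in 50 mM Tris pH 8.5, 10 mM MgCl2, 0.01% Brij-35, 1 mM EGTA, 2 mM DTT and 0.05 mM orthovanadate. Fluorescein-LRRKtide and 134 μM ATP (Km) were then added for 90 min. EDTA and Tb-anti-pERM antibody stopped the reaction; the TR-FRET 520/495 ratio gave 4-parameter IC50s, reported as mean pIC50.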

Sequence of GST tagged truncated human mutant G2019S LRRK2 (Q5S007 970-2527 G2019S): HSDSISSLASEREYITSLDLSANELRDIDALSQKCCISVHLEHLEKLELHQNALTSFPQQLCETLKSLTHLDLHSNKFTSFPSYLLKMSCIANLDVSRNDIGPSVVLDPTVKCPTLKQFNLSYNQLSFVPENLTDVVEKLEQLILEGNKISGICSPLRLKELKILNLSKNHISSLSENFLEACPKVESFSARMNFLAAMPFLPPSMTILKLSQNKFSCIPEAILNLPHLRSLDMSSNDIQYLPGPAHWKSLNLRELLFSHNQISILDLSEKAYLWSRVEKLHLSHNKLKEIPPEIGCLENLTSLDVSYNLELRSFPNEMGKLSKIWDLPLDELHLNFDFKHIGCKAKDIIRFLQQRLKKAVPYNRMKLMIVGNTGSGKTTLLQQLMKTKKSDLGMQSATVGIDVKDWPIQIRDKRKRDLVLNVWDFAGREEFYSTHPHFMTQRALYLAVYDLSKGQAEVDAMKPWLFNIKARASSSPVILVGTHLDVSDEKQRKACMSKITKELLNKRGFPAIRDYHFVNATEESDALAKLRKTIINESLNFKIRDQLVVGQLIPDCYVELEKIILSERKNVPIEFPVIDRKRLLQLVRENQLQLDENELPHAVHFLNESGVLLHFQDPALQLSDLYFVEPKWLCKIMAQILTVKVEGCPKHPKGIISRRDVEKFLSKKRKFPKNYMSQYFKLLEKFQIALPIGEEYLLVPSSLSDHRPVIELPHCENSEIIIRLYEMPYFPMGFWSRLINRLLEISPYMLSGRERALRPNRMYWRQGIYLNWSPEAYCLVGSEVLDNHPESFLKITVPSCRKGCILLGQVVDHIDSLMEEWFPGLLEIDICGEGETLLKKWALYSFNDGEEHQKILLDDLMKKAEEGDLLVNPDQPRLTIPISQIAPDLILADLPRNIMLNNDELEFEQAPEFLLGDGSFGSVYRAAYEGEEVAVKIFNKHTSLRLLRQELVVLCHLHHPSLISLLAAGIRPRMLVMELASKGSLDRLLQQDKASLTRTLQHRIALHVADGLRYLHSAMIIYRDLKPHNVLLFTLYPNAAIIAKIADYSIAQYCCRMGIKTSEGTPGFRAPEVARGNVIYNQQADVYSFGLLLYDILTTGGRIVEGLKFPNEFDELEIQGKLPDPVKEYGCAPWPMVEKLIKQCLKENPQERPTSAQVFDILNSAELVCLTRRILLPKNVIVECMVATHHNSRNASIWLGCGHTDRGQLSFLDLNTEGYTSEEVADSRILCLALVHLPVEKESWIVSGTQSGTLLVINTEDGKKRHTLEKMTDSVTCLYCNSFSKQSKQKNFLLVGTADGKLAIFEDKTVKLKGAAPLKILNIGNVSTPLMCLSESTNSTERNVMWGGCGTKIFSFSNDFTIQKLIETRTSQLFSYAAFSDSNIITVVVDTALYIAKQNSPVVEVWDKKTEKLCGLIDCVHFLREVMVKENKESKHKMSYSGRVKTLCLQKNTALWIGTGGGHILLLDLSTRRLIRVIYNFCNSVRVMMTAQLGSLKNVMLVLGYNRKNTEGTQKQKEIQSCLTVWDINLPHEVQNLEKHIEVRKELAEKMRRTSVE

Row | SMILES | LRRK2 pIC50 | IC50 [nM]
1 | Cc1c(Nc2ncc3cc(Cl)c(C4CCN(C5CCC(CC#N)C5)CC4)cc3n2)cnn1C1CC1 (single isomer, unassigned) [Ex-4.169, (1R,3R) or (1S,3R) or (1R,3S) or (1S,3S) [3-(4-{6-chloro-2-[(1-cyclopropyl-5-methyl-1H-pyrazol-4-yl)amino]quinazolin-7-yl}piperidin-1-yl)cyclopentyl]acetonitrile] | 8.25 | 
2 | Cc1c(Nc2ncc3cc(Cl)c(C4CCN(C5CCC(CC#N)C5)CC4)cc3n2)cnn1C1CC1 (single isomer, unassigned) [Ex-4.170, (1R,3R) or (1S,3R) or (1R,3S) or (1S,3S) [3-(4-{6-chloro-2-[(1-cyclopropyl-5-methyl-1H-pyrazol-4-yl)amino]quinazolin-7-yl}piperidin-1-yl)cyclopentyl]acetonitrile] | 8.81 | 
3 | Cc1c(Nc2ncc3cc(Cl)c(C4CCN(C5CCC(CC#N)C5)CC4)cc3n2)cnn1C1CC1 (single isomer, unassigned) [Ex-4.171, (1R,3R) or (1S,3R) or (1R,3S) or (1S,3S) [3-(4-{6-chloro-2-[(1-cyclopropyl-5-methyl-1H-pyrazol-4-yl)amino]quinazolin-7-yl}piperidin-1-yl)cyclopentyl]acetonitrile] | 8.51 | 
4 | Cc1c(Nc2ncc3cc(Cl)c(C4CCN(C5COC(C)(C)C5)CC4)cc3n2)cnn1C1CC1 (single isomer, unassigned) [Ex-4.173, (R) or (S) 6-chloro-N-(1-cyclopropyl-5-methyl-1H-pyrazol-4-yl)-7-[1-(5,5-dimethyloxolan-3-yl)piperidin-4-yl]quinazolin-2-amine] |  | 3.72
5 | Cc1c(Nc2ncc3cc(Cl)c(C4CCN(C5COC(C)(C)C5)CC4)cc3n2)cnn1C1CC1 (single isomer, unassigned) [Ex-4.174, (R) or (S) 6-chloro-N-(1-cyclopropyl-5-methyl-1H-pyrazol-4-yl)-7-[1-(5,5-dimethyloxolan-3-yl)piperidin-4-yl]quinazolin-2-amine] |  | < 0.631
6 | Cc1c(Nc2ncc3cc(Cl)c([C@H]4CCN(C5COC5)C[C@@H]4F)cc3n2)cnn1C1CC1(F)F (single isomer, unassigned) [Ex-4.175, (R)(3S,4S) or (S)(3S,4S) or (R)(3R,4R) or (S)(3R,4R) 6-chloro-N-[1-(2,2-difluorocyclopropyl)-5-methyl-1H-pyrazol-4-yl]-7-[(3R,4R)-3-fluoro-1-(oxetan-3-yl)piperidin-4-yl]quinazolin-2-amine] | 9.10 | 
7 | Cc1c(Nc2ncc3cc(Cl)c([C@H]4CCN(C5COC5)C[C@@H]4F)cc3n2)cnn1C1CC1(F)F (single isomer, unassigned) [Ex-4.176, (R)(3S,4S) or (S)(3S,4S) or (R)(3R,4R) or (S)(3R,4R) 6-chloro-N-[1-(2,2-difluorocyclopropyl)-5-methyl-1H-pyrazol-4-yl]-7-[(3R,4R)-3-fluoro-1-(oxetan-3-yl)piperidin-4-yl]quinazolin-2-amine] | 8.73 | 
8 | Cc1c(Nc2ncc3cc(Cl)c([C@@H]4CCN(C5COC5)C[C@H]4F)cc3n2)cnn1C1CC1(F)F (single isomer, unassigned) [Ex-4.177, (R)(3S,4S) or (S)(3S,4S) or (R)(3R,4R) or (S)(3R,4R) 6-chloro-N-[1-(2,2-difluorocyclopropyl)-5-methyl-1H-pyrazol-4-yl]-7-[(3R,4R)-3-fluoro-1-(oxetan-3-yl)piperidin-4-yl]quinazolin-2-amine] | 9.16 | 
9 | Cc1c(Nc2ncc3cc(Cl)c([C@@H]4CCN(C5COC5)C[C@H]4F)cc3n2)cnn1C1CC1(F)F (single isomer, unassigned) [Ex-4.178, (R)(3S,4S) or (S)(3S,4S) or (R)(3R,4R) or (S)(3R,4R) 6-chloro-N-[1-(2,2-difluorocyclopropyl)-5-methyl-1H-pyrazol-4-yl]-7-[(3R,4R)-3-fluoro-1-(oxetan-3-yl)piperidin-4-yl]quinazolin-2-amine] | 8.58 | 
10 | Cc1c(Nc2ncc3cc(Cl)c(C4CCN(C5COC5)CC4)cc3n2)cnn1C1CC1(F)F (single isomer, unassigned) [Ex-4.179, (R) or (S) 6-chloro-N-[1-(2,2-difluorocyclopropyl)-5-methyl-1H-pyrazol-4-yl]-7-[1-(oxetan-3-yl)piperidin-4-yl]quinazolin-2-amine] |  | < 0.631
11 | Cc1c(Nc2ncc3cc(Cl)c([C@@H]4CCN([C@H]5COC[C@H]5O)C[C@H]4F)cc3n2)cnn1C1CC1(F)F (single isomer, unassigned) [Ex-4.180, (R)(3S,4S)(3S,4S) or (R)(3S,4S)(3R,4R) or (R)(3R,4R)(3S,4S) or (R)(3R,4R)(3R,4R) or (S)(3S,4S)(3S,4S) or (S)(3S,4S)(3R,4R) or (S)(3R,4R)(3S,4S) or (S)(3R,4R)(3R,4R) 4-(4-(6-chloro-2-((1-(2,2-difluorocyclopropyl)-5-methyl-1H-pyrazol-4-yl)amino)quinazolin-7-yl)-3-fluoropiperidin-1-yl)tetrahydrofuran-3-olyl]amino}quinazolin-7-yl)-3-fluoropiperidin-1-yl]oxolan-3-ol] | >9.20 | 
12 | Cc1c(Nc2ncc3cc(Cl)c([C@@H]4CCN([C@@H]5COC[C@@H]5O)C[C@H]4F)cc3n2)cnn1C1CC1(F)F (single isomer, unassigned) [Ex-4.181, (R)(3S,4S)(3S,4S) or (R)(3S,4S)(3R,4R) or (R)(3R,4R)(3S,4S) or (R)(3R,4R)(3R,4R) or (S)(3S,4S)(3S,4S) or (S)(3S,4S)(3R,4R) or (S)(3R,4R)(3S,4S) or (S)(3R,4R)(3R,4R) 4-(4-(6-chloro-2-((1-(2,2-difluorocyclopropyl)-5-methyl-1H-pyrazol-4-yl)amino)quinazolin-7-yl)-3-fluoropiperidin-1-yl)tetrahydrofuran-3-olyl]amino}quinazolin-7-yl)-3-fluoropiperidin-1-yl]oxolan-3-ol] | >9.20 | 
13 | Cc1c(Nc2ncc3cc(Cl)c(C4CCN([C@@H]5COC[C@@H]5O)CC4)cc3n2)cnn1C1CC1(F)F (single isomer, unassigned) [Ex-4.182, (R)(3S,4S) or (S)(3S,4S) or (R)(3R,4R) or (S)(3R,4R) 4-[4-(6-chloro-2-{[1-(2,2-difluorocyclopropyl)-5-methyl-1H-pyrazol-4-yl]amino}quinazolin-7-yl)piperidin-1-yl]oxolan-3-ol] | >9.20 | 
14 | Cc1c(Nc2ncc3cc(Cl)c(C4CCN([C@H]5COC[C@H]5O)CC4)cc3n2)cnn1C1CC1(F)F (single isomer, unassigned) [Ex-4.183, (R)(3S,4S) or (S)(3S,4S) or (R)(3R,4R) or (S)(3R,4R) 4-[4-(6-chloro-2-{[1-(2,2-difluorocyclopropyl)-5-methyl-1H-pyrazol-4-yl]amino}quinazolin-7-yl)piperidin-1-yl]oxolan-3-ol] | >9.20 | 
15 | O[C@@H]1COCC1N1CC[C@H](c2cc3nc(Nc4cnn(C5CC5(F)F)c4Cl)ncc3cc2Cl)[C@@H](F)C1 (single isomer, unassigned) [Ex-4.184, (R)(3S,4S)(3S,4S) or (R)(3S,4S)(3R,4R) or (R)(3R,4R)(3S,4S) or (R)(3R,4R)(3R,4R) or (S)(3S,4S)(3S,4S) or (S)(3S,4S)(3R,4R) or (S)(3R,4R)(3S,4S) or (S)(3R,4R)(3R,4R) 4-(6-chloro-2-{[5-chloro-1-(2,2-difluorocyclopropyl)-1H-pyrazol-4-yl]amino}quinazolin-7-yl)-3-fluoropiperidin-1-yl]oxolan-3-ol] | >9.20 | 
16 | Cn1ncc(Nc2ncc3cc(Cl)c([C@@H]4CCN([C@H]5COC[C@H]5O)C[C@H]4F)cc3n2)c1Cl (single isomer, unassigned) [Ex-4.185, (3S,4S)(3S,4S) or (3S,4S)(3R,4R) or (3R,4R)(3S,4S) or (3R,4R)(3R,4R) 4-(4-{6-chloro-2-[(5-chloro-1-methyl-1H-pyrazol-4-yl)amino]quinazolin-7-yl}-3-fluoropiperidin-1-yl)oxolan-3-ol] | 9.17 | 
17 | Cn1ncc(Nc2ncc3cc(Cl)c([C@@H]4CCN([C@@H]5COC[C@@H]5O)C[C@H]4F)cc3n2)c1Cl (single isomer, unassigned) [Ex-4.186, (3S,4S)(3S,4S) or (3S,4S)(3R,4R) or (3R,4R)(3S,4S) or (3R,4R)(3R,4R) 4-(4-{6-chloro-2-[(5-chloro-1-methyl-1H-pyrazol-4-yl)amino]quinazolin-7-yl}-3-fluoropiperidin-1-yl)oxolan-3-ol] | 7.95 | 
18 | Cc1c(Nc2ncc3cc(Cl)c(C4CCN(C(=O)[C@@H](C)O)C4)cc3n2)cnn1C1CC1 (single isomer, unassigned) [Ex-4.187, (2R)(3S) or (2R)(3R) 1-(3-{6-chloro-2-[(1-cyclopropyl-5-methyl-1H-pyrazol-4-yl)amino]quinazolin-7-yl}pyrrolidin-1-yl)-2-hydroxypropan-1-one] | 8.54 | 
19 | Cn1ncc(Nc2ncc3cc(Cl)c([C@H]4CCN([C@H]5COC[C@H]5O)C[C@@H]4F)cc3n2)c1Cl (single isomer, unassigned) [Ex-4.188, (3S,4S)(3S,4S) or (3S,4S)(3R,4R) or (3R,4R)(3S,4S) or (3R,4R)(3R,4R) 4-(4-{6-chloro-2-[(5-chloro-1-methyl-1H-pyrazol-4-yl)amino]quinazolin-7-yl}-3-fluoropiperidin-1-yl)oxolan-3-ol] | 7.83 | 
20 | Cn1ncc(Nc2ncc3cc(Cl)c([C@H]4CCN([C@@H]5COC[C@@H]5O)C[C@@H]4F)cc3n2)c1Cl (single isomer, unassigned) [Ex-4.189, (3S,4S)(3S,4S) or (3S,4S)(3R,4R) or (3R,4R)(3S,4S) or (3R,4R)(3R,4R) 4-(4-{6-chloro-2-[(5-chloro-1-methyl-1H-pyrazol-4-yl)amino]quinazolin-7-yl}-3-fluoropiperidin-1-yl)oxolan-3-ol] | >9.20 | 
